Results on 21 molecules are retold here after patent publication US10174047B2, “Thienodiazepine derivatives or pharmaceutically acceptable salts thereof, and pharmaceutical composition including the same as an active ingredient” (Industry-University Cooperation Foundation Hanyang …, priority 2015, dated 2019).

Where only a bound is given, the exact number is not on record here.

The subject of one assay is A375P cell line (melanoma). The experiment in a line: Proliferation inhibition activity against A375P cell line (MTT assay). It is filed as cell-based. As to conditions: A375P melanoma cells, MTT assay; read-out: A375P (GI50). On the procedure: Measurement of Proliferation Inhibition Activity Against A375P Cell Line (Melanoma)
An A375P cell line purchased from ATCC was cultured in a DMEM medium [containing 10% FBS, 1% penicillin/streptomycin] at 37° C. in the presence of 5% CO2. The cultured A375P cell line was taken using 0.05% trypsin-0.02% EDTA, and seeded into a 96-well plate at a density of 5×10^3 cells per well.
Cell viability was measured using an MTT [3-(4,5-dimethylthiazol-2-yl)-2,5-diphenyltetrazolium bromide] assay (CellTiter 96 Assay, Promega) as follows. 15 μl of dye was placed per well, the cells were cultured for 2 hours, and then treated with 100 μl of a stop solution, and after 24 hours, absorbance was measured. One day after plating, they were treated with compounds. For treatment with compounds, […] of stock was prepared, and serially diluted to one-third in dimethyl sulfoxide (DMSO) to prepare a 12-point test compound plate, and 0.5 μl was added (final concentration DMSO 0.5%).
In the following Tables 1 to 3, in a case of GI50 being 10 to 30 μM, it was indicated as (+), in a case of it being 1 to 10 μM, it was indicated as (++), and in case of being less than 1 μM, it was indicated as (+++).
In general terms: Tetrazolium assays rely on reduction of a dye to a coloured formazan, in cell work by metabolically active cells.
As to `N#Cc1ccccc1Sc1ccccc1C(=O)Nc1cccc(C2=Nc3cscc3NC(=O)C2)c1` [Example 32, 2-(2-cyanophenylthio)-N-(3-(2-oxo-2,3-dihydro-1H-thieno[3,4-b][1,4]diazepine-4-yl)phenyl)benzamide], the GI50 was in the range of 10 to 30 µM.
On the same count and under the same terms, for `O=C(Cc1ccc(-c2ccccc2)cc1)Nc1cccc(C2=Nc3cscc3NC(=O)C2)c1` [Example 33, 2-(biphenyl-4-yl)-N-(3-(2-oxo-2,3-dihydro-1H-thieno[3,4-b][1,4]diazepine-4-yl)phenyl)acetamide] the value was 10 to 30 µM.
Still for that read-out and setting: for `Cc1cc(C)cc(C(=O)Nc2cccc(C3=Nc4cscc4NC(=O)C3)c2)c1` [Example 34, 3,5-dimethyl-N-(3-(2-oxo-2,3-dihydro-1H-thieno[3,4-b][1,4]diazepine-4-yl)phenyl)benzamide] the value was 10 to 30 µM.
Same read-out and setting: for `O=C(Cc1ccccc1F)Nc1cccc(C2=Nc3cscc3NC(=O)C2)c1` [Example 35, 2-(2-fluorophenyl)-N-(3-(2-oxo-2,3-dihydro-1H-thieno[3,4-b][1,4]diazepine-4-yl)phenyl)acetamide] the value was 10 to 30 µM.
On to `O=C1CC(c2cccc(NC(=O)c3ccc4ccccc4n3)c2)=Nc2cscc2N1` [Example 36, N-(3-(2-oxo-2,3-dihydro-1H-thieno[3,4-b][1,4]diazepine-4-yl)phenyl)quinoline-2-carboxamide], for which the GI50 lay in the range of 10 to 30 µM.
On the same count and under the same terms, as for `O=C1CC(c2cccc(NC(=O)c3cnc4ccccc4c3)c2)=Nc2cscc2N1` [Example 37, N-(3-(2-oxo-2,3-dihydro-1H-thieno[3,4-b][1,4]diazepine-4-yl)phenyl)quinoline-3-carboxamide], the figure is 10 to 30 µM; as for `Cc1c(C)c2c(c(C)c1O)CC[C@](C)(C(=O)Nc1cccc(C3=Nc4cscc4NC(=O)C3)c1)O2` [Example 38, (R)-6-hydroxy-2,5,7,8-tetramethyl-N-(3-(2-oxo-2,3-dihydro-1H-thieno[3,4-b][1,4]diazepine-4-yl)phenyl)chroman-2-carboxamide], 10 to 30 µM.
For the molecule `O=C1CC(c2ccc(NC(=O)Nc3ccc(Cl)c(C(F)(F)F)c3)cc2)=Nc2cscc2N1` [Example 39, 1-(4-chloro-3-(trifluoromethyl)phenyl)-3-(4-(2-oxo-2,3-dihydro-1H-thieno[3,4-b][1,4]diazepine-4-yl)phenyl)urea], the GI50 is less than 1 µM.
On to `O=C1CC(c2ccc(NC(=O)Nc3ccc(Cl)cc3)cc2)=Nc2cscc2N1` [Example 40, 1-(4-chlorophenyl)-3-(4-(2-oxo-2,3-dihydro-1H-thieno[3,4-b][1,4]diazepine-4-yl)phenyl)urea], for which the 50% growth inhibitory concentration (GI50) lay in the range of 1 to 10 µM.
On the same count and under the same terms, for `O=C1CC(c2ccc(NC(=O)Nc3cccc(Cl)c3)cc2)=Nc2cscc2N1` [Example 41, 1-(3-chlorophenyl)-3-(4-(2-oxo-2,3-dihydro-1H-thieno[3,4-b][1,4]diazepine-4-yl)phenyl)urea] the value was 10 to 30 µM.
Consider `O=C1CC(c2ccc(NC(=O)Nc3ccc(Cl)c(Cl)c3)cc2)=Nc2cscc2N1` [Example 42, 1-(3,4-dichlorophenyl)-3-(4-(2-oxo-2,3-dihydro-1H-thieno[3,4-b][1,4]diazepine-4-yl)phenyl)urea], for which the GI50 was 1 to 10 µM.
On the same count and under the same terms, as for `O=C1CC(c2ccc(NC(=O)Nc3cc(Cl)cc(Cl)c3)cc2)=Nc2cscc2N1` [Example 44, 1-(3,5-dichlorophenyl)-3-(4-(2-oxo-2,3-dihydro-1H-thieno[3,4-b][1,4]diazepine-4-yl)phenyl)urea], the figure is less than 1 µM; as for `O=C1CC(c2ccc(NC(=O)Nc3ccccc3F)cc2)=Nc2cscc2N1` [Example 45, 1-(2-fluorophenyl)-3-(4-(2-oxo-2,3-dihydro-1H-thieno[3,4-b][1,4]diazepine-4-yl)phenyl)urea], 10 to 30 µM; as for `O=C1CC(c2cccc(NC(=O)Nc3ccc(Cl)c(C(F)(F)F)c3)c2)=Nc2cscc2N1` [Example 46, 1-(4-chloro-3-(trifluoromethyl)phenyl)-3-(3-(2-oxo-2,3-dihydro-1H-thieno[3,4-b][1,4]diazepine-4-yl)phenyl)urea], 1 to 10 µM.
On the same count and under the same terms, for `O=C1CC(c2cccc(NC(=O)Nc3ccc(Cl)cc3)c2)=Nc2cscc2N1` [Example 47, 1-(4-chlorophenyl)-3-(3-(2-oxo-2,3-dihydro-1H-thieno[3,4-b][1,4]diazepine-4-yl)phenyl)urea] the value was 1 to 10 µM; for `O=C1CC(c2cccc(NC(=O)Nc3cccc(Cl)c3)c2)=Nc2cscc2N1` [Example 48, 1-(3-chlorophenyl)-3-(3-(2-oxo-2,3-dihydro-1H-thieno[3,4-b][1,4]diazepine-4-yl)phenyl)urea], less than 1 µM.
Still for that read-out and setting: as for `CCN1CCN(Cc2ccc(NC(=O)Nc3cccc(C4=Nc5cscc5NC(=O)C4)c3)cc2C(F)(F)F)CC1` [Example 49, 1-(4-((4-ethylpiperazine-1-yl)methyl)-3-(trifluoromethyl)phenyl)-3-(3-(2-oxo-2,3-dihydro-1H-thieno[3,4-b][1,4]diazepine-4-yl)phenyl)urea], the figure is less than 1 µM; as for `O=C1CC(c2cccc(NC(=O)Nc3ccc(Cl)c(Cl)c3)c2)=Nc2cscc2N1` [Example 50, 1-(3,4-dichlorophenyl)-3-(3-(2-oxo-2,3-dihydro-1H-thieno[3,4-b][1,4]diazepine-4-yl)phenyl)urea], 1 to 10 µM; as for `O=C1CC(c2cccc(NC(=O)Nc3cc(Cl)cc(Cl)c3)c2)=Nc2cscc2N1` [Example 51, 1-(3,5-dichlorophenyl)-3-(3-(2-oxo-2,3-dihydro-1H-thieno[3,4-b][1,4]diazepine-4-yl)phenyl)urea], 10 to 30 µM.
For `O=C1CC(c2cccc(NC(=O)Nc3ccccc3F)c2)=Nc2cscc2N1` [Example 52, 1-(2-fluorophenyl)-3-(3-(2-oxo-2,3-dihydro-1H-thieno[3,4-b][1,4]diazepine-4-yl)phenyl)urea], the GI50 is 10 to 30 µM.

The assay is the same for the next values; noted with them: A375P melanoma cells, MTT assay; read-out: GI50 value against A375P.
Consider `CNC(=O)c1cc(Oc2ccc(NC(=O)Nc3ccc(Cl)c(C(F)(F)F)c3)cc2)ccn1` [Sorafenib, reference compound], for which the GI50 came out at 2.74 µM.

Still in this assay, the particulars now being: A375P melanoma cells, statement in words.
As for `O=C1CC(c2ccc(NC(=O)Nc3ccc(Cl)c(C(F)(F)F)c3)cc2)=Nc2cscc2N1` [Example 39, 1-(4-chloro-3-(trifluoromethyl)phenyl)-3-(4-(2-oxo-2,3-dihydro-1H-thieno[3,4-b][1,4]diazepine-4-yl)phenyl)urea], the “effects against A375P” value is “significant effects”.
As to `O=C1CC(c2ccc(NC(=O)Nc3cc(Cl)cc(Cl)c3)cc2)=Nc2cscc2N1` [Example 44, 1-(3,5-dichlorophenyl)-3-(4-(2-oxo-2,3-dihydro-1H-thieno[3,4-b][1,4]diazepine-4-yl)phenyl)urea], the “effects against A375P” value was “significant effects”.
Same read-out and setting: for `O=C1CC(c2cccc(NC(=O)Nc3cccc(Cl)c3)c2)=Nc2cscc2N1` [Example 48, 1-(3-chlorophenyl)-3-(3-(2-oxo-2,3-dihydro-1H-thieno[3,4-b][1,4]diazepine-4-yl)phenyl)urea] the value was “significant effects”; for `CCN1CCN(Cc2ccc(NC(=O)Nc3cccc(C4=Nc5cscc5NC(=O)C4)c3)cc2C(F)(F)F)CC1` [Example 49, 1-(4-((4-ethylpiperazine-1-yl)methyl)-3-(trifluoromethyl)phenyl)-3-(3-(2-oxo-2,3-dihydro-1H-thieno[3,4-b][1,4]diazepine-4-yl)phenyl)urea], “significant effects”.

As usually defined, the GI50 is the concentration that inhibits growth by half.
